{"source": "patent US12332245B2", "about": "“Cancer biomarkers and methods of use thereof” (THE REGENTS OF THE UNIVERSITY OF CALIFORNIA, priority 2006, dated 2025)", "molecules": {"B1": {"name": "activin A: a member of the TGF-β superfamily; a homodimer of the activin βA subunits (protein, UniProt P08476 311-426, looked up)", "Inhibin beta A chain": "GLECDGKVNICCKKQFFVSFKDIGWNDWIIAPSGYHANYCEGECPSHIAGTSGSSLSFHSTVINHYRMRGHSPFANLKSCCVPTKLRPMSMLYYDDGQNIIKKDIQNMIVEECGCS", "modifications": "Inhibin beta A chain"}}, "format_in_all_cases": "cell-based, human", "key": {"[1]": {"tested_on": "COX-2 in vHMEC over expressing TRF2", "assay": "phospho-p38 inhibitor treatment of vHMEC over expressing TRF2; COX-2 by Q-PCR and immunoblot", "details": "early passage vHMEC expressing TRF2, SB203580 24 hrs", "from_the_text": "Cell Culture: Human mammary epithelial cells (vHMEC) were isolated from reduction mammoplasty (RM) of four individuals RM9, RM15, RM16 and RM18. HMEC undergo a spontaneous proliferation barrier between 8 and 12 population doublings. Variant human mammary epithelial cells (vHMEC) escape this growth barrier and have silenced p16 through promoter methylation. Cells were propagated in 2D cultures in modified MCBD 170 media (MEGM, Lonza) as previously described (Romanov et al, 2001; Hammond et al 1984). All experiments were performed on exponentially growing early passage vHMEC (between 13 to 20 population doublings); RM9, 15, 16 and 18 cease to expand in cell number at population doublings 45, 60, 50 and 53, respectively. […]\n(§1) Quantitative PCR: Total RNA was isolated from cells and cDNA synthesized using standard methods. cDNA was subsequently used for quantitative real-time PCR using the standard curve method. […]\n(§2) Western Blotting, ELISA and Immunofluorescence: Cell pellets were lysed in T-PER buffer (Pierce). […] Activin A protein levels were measured using the Duo-Set Activin ELISA kit (R&D Systems) following the manufacturer's directions. […] Levels of activin A were determined in cells from all four donors. […] The mean fluorescent intensity of γH2AX signal (voxels) in each nucleus was determined with the Volocity 4.0.0 software package (Improvision) on Z-stacks. […]"}, "COX-2 in HMEC": {"tested_on": "COX-2 in HMEC", "assay": "exogenous induction of COX-2 by TGF-β in HMEC with modulated p16/Rb pathway (immunoblot)", "from_the_text": "DNA constructs. DNA constructs used in this study are as follows: pMSCV, pMSCV-shp16 (G. Hannon and S. Lowe, Cold Spring Harbor Laboratories); pLXSN, pLXSN-HPV 16 E7 (D. Galloway, Fred Hutchinson Cancer Center); pMKO, pMKO-shRb (W. Hahn, Harvard Medical School and Dana-Farber Cancer Institute), pBabe; pBabe-cyclinD1 (O. Tetsu, UCSF Cancer Center), pBabe, pBabe-hTert (K. Collins, UC-Berkeley); LXSP and LXSP-COX-2 (D. Dixon, Vanderbilt University Medical Center). All constructs were packaged in Phoenix A cells for viral propagation. To generate stable cell lines we exposed HMEC, vHMEC or breast cell lines to viral supernatant containing 8 μg/ml Polybrene (Sigma). Cells containing stable DNA integration were selected in medium containing 4 μg/ml puromycin (pMSCV, pMKO, and LXSP constructs), 50 μg/ml G418 (LXSN constructs) or 20 μg/nil hygromycin (pBabe). Where indicated, cell lines were imaged using a standard phase contrast microscopy.\nWestern Blot. Total protein (15-20 μg) lysates were electrophoretically separated by SDS-PAGE and transferred onto polyvinylidene difluoride (PVDF) membranes according to standard procedures. Antisera against COX-2 (160107; Cayman Chemical, MI), Rb (554136, BD Pharmingen), p16 (16P07 Neomarkers), E2F1 (sc-251 Santa Cruz), cyclinD1 (2926, Cell Signaling), p53 (se-126, Santa Cruz), p21 (SC-6246 Santa Cruz) were used according to manufacturers protocols.\nTo test this hypothesis, specific members of the p16/Rb pathway were genetically modulated, and the levels of COX-2 protein expression compared to HMEC that maintain p16 expression were determined. First, basal and induced COX-2 protein levels in HMEC lacking p16 activity were compared.\nTo extend this analysis, we determined how other alterations within this pathway, mutations common in cancer, affect COX-2 expression. We modulated the p16/Rb pathway by three additional methods, cyclin D1 overexpression, pRb downregulation, and expression of a viral oncoprotein, HPV 16-E7 and determined the effect on basal and exogenously-induced COX-2 protein levels. To determine if cyclin D1 induces and/or sensitizes cells to COX-2 induction, we measured COX-2 protein levels in HMEC engineered to stably express cyclin D1 under the regulation of an independent, constitutively active promoter. […] The absence of E2F1 upregulation following cyclin D1 overexpression supports our finding that Rb remains active. […] To determine if inactivation of Rb is sufficient for the upregulation of COX-2, we infected HMEC with a retrovirus containing a short hairpin RNA against Rb (shRb) and determined COX-2 protein levels in cells from two independent experiments. […] Similar to results obtained with Rb genetic silencing, expression of the human papilloma virus 16-E7 (HPV 16-E7) elevated both basal and induced levels of COX-2 protein (FIG. 12D). Stable expression of HPV16-E7 was performed in cells generated from three independent reduction mammoplasties. Mammary epithelial cells expressing HPV 16-E7 show downregulation of Rb and thus inactivation of Rb and consequently upregulation of E2F1 (FIG. 12D). HPV16-E7 is well characterized for its role as a transforming oncoprotein through targeted degradation of all three members of Rb family (Rb, p107 and p130) and driving E2F-dependent transactivation.\nFIG. 12A-E. Deregulation of distinct members of the p16/cyclin D1/Rb pathway differentially regulate COX-2. […]"}, "vHMEC-ras0.5 cells [2]": {"tested_on": "vHMEC-ras0.5 cells", "assay": "TGFβ-induced EMT in vHMEC-ras0.5 cells (immunofluorescence, flow cytometry, immunoblot, MSP)", "experimental": "Having observed that extracellular signaling induced by 10% serum can cooperate with intracellular ras activation to induce EMT in vHMEC, it was then asked whether appropriate growth factor stimulation could induce EMT in the immortalized vHMEC-ras0.5 cells which had maintained their epithelial morphology. […] Thiery et al. (2003) Curr. Opinion Cell. Biol. 15:740; and Zavadil et al. (2005) Oncogene 24:5764. vHMEC-ras0.5 cells were treated with TGFβ and the expression of molecular markers associated with EMT was assessed by immunofluorescence, flow cytometry, and immunoblot analysis. […] Coincident with the loss of epithelial marker expression was an upregulation in the expression of the mesenchymal markers, twist (FIG. 18B), N-cadherin, and fibronectin (FIG. 18C).\nUnlike the EMT observed in cells exposed to 10% serum, TGFβ-induced EMT is reversible. […] As expected, the promoter of the epithelial marker 14-3-3σ remained unmethylated in all the epithelial cells, and methylated in the human mammary fibroblasts, which were used as a positive control (FIG. 18D).\nFIGS. 18A-D. TGFβ induces EMT in vHMEC-ras0.5 cells without modulating methylation of E-cadherin. A. Inununofluorescence analysis. Cells were treated with 2 ng/ml TGFβ for 72 h, and immunostained for pancytokeratin, E-cadherin, β 1-integrin, and vimentin. B. Flow cytometric analysis of twist expression before (green curve) and after (purple curve) treatment with 2 ng/ml TGFβ for 72 h. C. Immunoblot analysis of the mesenchymal markers fibronectin (Fn) and N-cadherin (N-cad) was performed on cell lysates prepared from vHMEC-ras0.5 that were either untreated (−) or treated (+) with 2 ng/ml TGFβ for 72 h. Cell lystates prepared from human mammary fibroblasts were used as a positive control (C) and actin is shown as a loading control. D. MSP analysis of E-cadherin and 14-3 3σ was conducted on the PCR products of bisulfite-treated DNA isolated from vHMEC-ras0.5 untreated (−TGF) or treated (+TGF) with 2 ng/ml TGFβ for 96 h as described in FIGS. 3B and C. Bisulfite-modified DNA from MCF7 and MDA-MB-231 cells was used as unmethylated and methylated control templates, respectively for E-cadherin, while bisulfite-modified DNA from MDA-MB-231 and human mammary fibroblasts (HMF) served as unmethylated and methylated controls for 14-3-3s. Also included is a water control (no template)."}, "vHMEC-ras0.5 cells [3]": {"tested_on": "vHMEC-ras0.5 cells", "assay": "scratch migration assay of vHMEC-ras0.5 monolayers with time-lapse microscopy", "details": "TGFβ treated versus untreated cells"}, "[4]": {"tested_on": "COX-2 and phospho-p38 in vHMEC", "assay": "exogenous activin A treatment of vHMEC; COX-2 and phospho-p38 by Q-PCR and immunoblot", "details": "exogenous activin A 48 hrs", "from_the_text": "Cell Culture: Human mammary epithelial cells (vHMEC) were isolated from reduction mammoplasty (RM) of four individuals RM9, RM15, RM16 and RM18. HMEC undergo a spontaneous proliferation barrier between 8 and 12 population doublings. Variant human mammary epithelial cells (vHMEC) escape this growth barrier and have silenced p16 through promoter methylation. Cells were propagated in 2D cultures in modified MCBD 170 media (MEGM, Lonza) as previously described (Romanov et al, 2001; Hammond et al 1984). All experiments were performed on exponentially growing early passage vHMEC (between 13 to 20 population doublings); RM9, 15, 16 and 18 cease to expand in cell number at population doublings 45, 60, 50 and 53, respectively. Activin A (Sigma) and the p38 inhibitor, SB203580, (Sigma) were added to culture media for 48 and 24 hours (respectively) prior to harvest at the doses shown in FIGS. 3 and 4. The same amount of solvent for each molecule was added to the culture media for controls.\nas §1, §2\nFIGS. 23A-D: Activin A is Up Regulated in vHMEC and Induces COX-2. A. Box plot showing the levels of activin A mRNA measured using Q-PCR in parental vHMEC, or vHMEC over expressing vector (pWP) or TRF2 from 4 donors. p-value was calculated using ANOVA and is shown in the inset. B, Box plot showing the levels of activin A protein measured using ELISA in parental vHMEC or vHMEC over expressing vector (pWP) or TRF2 from 4 donors. […]"}, "[5]": {"details": "2 ng/ml TGFβ for 72 h, immunofluorescence"}}, "data": [{"molecule": "C[S+]([O-])c1ccc(-c2nc(-c3ccncc3)c(-c3ccc(F)cc3)[nH]2)cc1", "note": "(centres unmarked) [SB203580]", "values": [{"measurement": "COX-2 mRNA", "setting": "[1]; Q-PCR, ANOVA p=0.002", "result": "marked decrease"}, {"measurement": "COX-2 protein levels", "setting": "[1]; immunoblot", "result": "marked decrease"}]}, {"molecule": "TGF-β", "values": [{"measurement": "COX-2 protein after exogenous induction", "setting": "COX-2 in HMEC; HMEC expressing HPV 16-E7, 24 h exposure to 1 ng/ml TGF-β", "result": "elevated"}, {"measurement": "COX-2 protein after exogenous induction", "setting": "COX-2 in HMEC; HMEC overexpressing cyclin D1, 24 h exposure to 1 ng/ml TGF-β", "result": "failed to render cells sensitive"}, {"measurement": "COX-2 protein after exogenous induction", "setting": "COX-2 in HMEC; HMEC with shRb, 24 h exposure to 1 ng/ml TGF-β", "result": "increased"}, {"measurement": "COX-2 protein after exogenous induction", "setting": "COX-2 in HMEC; p16 silenced HMEC (shp16), 24 h exposure to 1 ng/ml TGF-β", "result": "COX-2 upregulation"}, {"measurement": "COX-2 protein after exogenous induction", "setting": "COX-2 in HMEC; vector control HMEC (pMSCV), 24 h exposure to 1 ng/ml TGF-β", "result": "unresponsive"}, {"measurement": "expression of the mesenchymal markers twist, N-cadherin and fibronectin", "setting": "vHMEC-ras0.5 cells [2]; 2 ng/ml TGFβ for 72 h, flow cytometry and immunoblot", "result": "upregulation"}, {"measurement": "E-cadherin expression", "setting": "vHMEC-ras0.5 cells [2]; [5]", "result": "loss"}, {"measurement": "cytokeratin expression", "setting": "vHMEC-ras0.5 cells [2]; [5]", "result": "diminution"}, {"measurement": "β1-integrin expression", "setting": "vHMEC-ras0.5 cells [2]; [5]", "result": "loss"}, {"measurement": "methylation of the E-cadherin promoter", "setting": "vHMEC-ras0.5 cells [2]; 2 ng/ml TGFβ for 96 h, MSP", "result": "not observed"}, {"measurement": "cell morphology (EMT)", "setting": "vHMEC-ras0.5 cells [2]; 2 ng/ml TGFβ, began within 48 h, clearly manifested by 72 h", "result": "morphological change"}, {"measurement": "migration into the denuded area", "setting": "vHMEC-ras0.5 cells [3]", "result": "increase in directed migration"}]}, {"molecule": "B1", "values": [{"measurement": "increase in COX-2 mRNA", "setting": "[4]; vHMEC from two donors, Q-PCR, ANOVA p=0.001", "result": "approximately two-fold"}, {"measurement": "increase in COX-2 protein", "setting": "[4]; vHMEC from two donors, immunoblot", "result": "approximately two-fold"}, {"measurement": "levels of phospho-p38", "setting": "[4]; vHMEC, immunoblot", "result": "increase"}]}]}
